Laboratory results from US7033509B2 (priority 2000, dated 2006).
Several values for one entry are separate records, joined by “and”; a condition that tells them apart may be missing. Equal entries are not always repeated. Where two headings read alike, the source gives them in different places.

Tests used:
[1] = system: bacteria on the surface of strawberry; type: cell-based
[2] = system: fungi on the surface of lettuce; experiment: Lettuce (L) laboratory dipping, fungi; type: cell-based; conditions: 10, 20, 30 ppm iodine
[3] = system: fungi on the surface of avocado; type: cell-based
[4] = system: bacteria on the surface of lettuce; experiment: Lettuce (L) laboratory dipping, bacteria; type: cell-based; conditions: 10, 20, 30 ppm iodine
[5] = system: naturally occurring surface organisms on fruits and vegetables; experiment: Dipping time effect on efficacy (potatoes, oranges); type: cell-based, bacteria and fungi; conditions: iodine dips, one to four minutes
[6] = system: bacteria on the surface of peach; type: cell-based
[7] = system: bacteria on the surface of potato; experiment: Potato (L) laboratory dipping, bacteria; type: cell-based; conditions: concentrations of 3, 10 & 30 ppm iodine used
[8] = system: bacteria on the surface of rockmelon; type: cell-based
fungi on bean sprouts = experiment: Bean sprouts (ISU), fungi; type: cell-based; conditions: 10, 20, 30 ppm iodine
[9] = system: fungi on the surface of nectarine; experiment: Nectarine (L) laboratory dipping, fungi; type: cell-based; conditions: concentrations of 3, 10 & 30 ppm iodine used
[10] = system: bacteria and fungi found on fresh fruit and vegetables; experiment: Summary of efficacy results: comparison bacteria/fungi and iodine/chlorine; type: cell-based
Escherichia coli = conditions: compared with chlorine, especially at the higher temperature and pH values; cited from earlier work
[11] = system: fungi on the surface of orange; experiment: Orange (L) laboratory dipping, fungi; type: cell-based; conditions: concentrations of 3, 10 & 30 ppm iodine used
[12] = system: bacteria on the surface of lettuce; type: cell-based
[13] = system: bacteria on the surface of nectarine; experiment: Nectarine (L) laboratory dipping, bacteria; type: cell-based; conditions: concentrations of 3, 10 & 30 ppm iodine used
[14] = system: bacteria on the surface of avocado; type: cell-based
[15] = system: bacteria on the surface of potato; type: cell-based
[16] = system: fungi on the surface of peach; type: cell-based
bacteria on bean sprouts = experiment: Bean sprouts (ISU), bacteria; type: cell-based; conditions: 10, 20, 30 ppm iodine
[17] = system: fungi on the surface of tomato; experiment: Tomato (L) laboratory dipping, fungi; type: cell-based; conditions: 10, 20, 30 ppm iodine
[18] = system: fungi on the surface of lettuce; type: cell-based
[19] = system: bacteria on the surface of apple; type: cell-based
[20] = system: bacteria on the surface of orange; experiment: Orange (L) laboratory dipping, bacteria; type: cell-based; conditions: concentrations of 3, 10 & 30 ppm iodine used
[21] = system: fungi on the surface of apple; type: cell-based
[22] = system: bacteria on the surface of tomato; experiment: Tomato (L) laboratory dipping, bacteria; type: cell-based; conditions: 10, 20, 30 ppm iodine
[23] = system: fungi on the surface of potato; experiment: Potato (L) laboratory dipping, fungi; type: cell-based; conditions: concentrations of 3, 10 & 30 ppm iodine used
[24] = system: fungi on the surface of potato; type: cell-based
[25] = system: fungi on the surface of strawberry; type: cell-based
[26] = system: fungi on the surface of rockmelon; type: cell-based

Compound: II
- Bacteria—dose for ~1.5 log10 reduction [1]: >30 ppm
- Fungi—dose for ~1.5 log10 reduction [2]: >30 ppm
- Fungi—dose for ~1.5 log10 reduction [3]: 20 ppm
- Bacteria—dose for ~1.5 log10 reduction [4]: 30 ppm
- effect of dip time on effectiveness [5]: equivalent in effectiveness to doubling the dip concentration
- Bacteria—dose for ~1.5 log10 reduction [6]: 10 ppm
- Bacteria—dose for ~1.5 log10 reduction [7]: >30 ppm
- Bacterial population per cm^2 Actual count [8]: 19,514 per cm^2 and 14,456 per cm^2 and 10,028 per cm^2
- Bacterial population per cm^2 Log10 count [8]: 4.26 log10 units and 4.15 log10 units and 3.98 log10 units
- Bacterial population per cm^2 Log10 reduction [8]: 0.83 b log10 units and 0.93 bc log10 units and 1.10 cd log10 units
- Bacteria—dose for ~1.5 log10 reduction [8]: >30 ppm
- Fungi—dose for ~1.5 log10 reduction (fungi on bean sprouts): 30 ppm
- Fungi—dose for ~1.5 log10 reduction [9]: 10 ppm
- Better Control of Bacteria/Fungi ([10]; Apples (ISU)): Fungi
- Better control by iodine/chlorine ([10]; Apples (ISU)): Iodine
- Better Control of Bacteria/Fungi ([10]; Avocado (ISU)): Bacteria
- Better control by iodine/chlorine ([10]; Avocado (ISU)): Iodine
- Better control by iodine/chlorine ([10]; Bean sprouts (ISU)): Iodine
- Better Control of Bacteria/Fungi ([10]; Lettuce (ISU)): Fungi
- Better control by iodine/chlorine ([10]; Lettuce (ISU)): Iodine
- Better Control of Bacteria/Fungi ([10]; Lettuce (L)): Bacteria
- Better control by iodine/chlorine ([10]; Lettuce (L)): Chlorine
- Better Control of Bacteria/Fungi ([10]; Nectarine (L)): Bacteria
- Better control by iodine/chlorine ([10]; Nectarine (L)): Iodine
- Better Control of Bacteria/Fungi ([10]; Orange (L)): Bacteria
- Better control by iodine/chlorine ([10]; Orange (L)): Chlorine
- Better Control of Bacteria/Fungi ([10]; Peach (L)): Bacteria
- Better control by iodine/chlorine ([10]; Peach (L)): Iodine
- Better Control of Bacteria/Fungi ([10]; Potato (ISU)): Fungi
- Better control by iodine/chlorine ([10]; Potato (ISU)): Iodine
- Better Control of Bacteria/Fungi ([10]; Potato (L)): Fungi
- Better control by iodine/chlorine ([10]; Potato (L)): Iodine
- Better Control of Bacteria/Fungi ([10]; Rockmelon (ISU)): Fungi
- Better control by iodine/chlorine ([10]; Rockmelon (ISU)): Same effectiveness
- Better Control of Bacteria/Fungi ([10]; Strawberry (ISU)): Fungi
- Better control by iodine/chlorine ([10]; Strawberry (ISU)): Iodine
- Better Control of Bacteria/Fungi ([10]; Tomato (L)): Fungi
- Better control by iodine/chlorine ([10]; Tomato (L)): Iodine
- effectiveness compared with an equivalent concentration of chlorine ([10]; over the range of products and concentrations used): considerably more effective
- efficiency for the control of Escherichia coli in dirty water (Escherichia coli): greater than that of chlorine
- Fungi—dose for ~1.5 log10 reduction [11]: 30 ppm
- Bacteria—dose for ~1.5 log10 reduction [12]: 20 ppm
- Bacteria—dose for ~1.5 log10 reduction [13]: 3.3 ppm
- Bacteria—dose for ~1.5 log10 reduction [14]: 10 ppm
- Bacterial population per cm^2 Actual count [15]: 370 per cm^2 and 260 per cm^2 and 249 per cm^2
- Bacterial population per cm^2 Log10 count [15]: 2.54 log10 units and 2.34 log10 units and 2.38 log10 units
- Bacterial population per cm^2 Log10 reduction [15]: 0.39 ab log10 units and 0.58 b log10 units and 0.54 b log10 units
- Bacteria—dose for ~1.5 log10 reduction [15]: >30 ppm
- Fungi—dose for ~1.5 log10 reduction [16]: 30 ppm
- Bacteria—dose for ~1.5 log10 reduction (bacteria on bean sprouts): 30 ppm
- Fungi—dose for ~1.5 log10 reduction [17]: 20 ppm
- Fungal population per cm^2 Log10 count [18]: −0.12 log10 units and −0.35 log10 units
- Fungi—dose for ~1.5 log10 reduction [18]: 10 ppm
- Bacteria—dose for ~1.5 log10 reduction [19]: 10 ppm
- Bacteria—dose for ~1.5 log10 reduction [20]: 30 ppm
- Fungi—dose for ~1.5 log10 reduction [21]: 10 ppm
- Bacteria—dose for ~1.5 log10 reduction [22]: 20 ppm
- Fungi—dose for ~1.5 log10 reduction [23]: >30 ppm
- Fungal population per cm^2 Actual count [24]: 2 per cm^2 and 3 per cm^2
- Fungi—dose for ~1.5 log10 reduction [24]: 10 ppm
- Fungi—dose for ~1.5 log10 reduction [25]: 30 ppm
- Fungi—dose for ~1.5 log10 reduction [26]: 20 ppm
